# Calls of active or inactive are those of the source. The calls are words filed in the database; no cut-off is given here.
# Tests used:
# [1] = molecular target: T1, Dual specificity mitogen-activated protein kinase kinase 1 (Homo sapiens, UniProt Q02750); assay: Inhibition of MEK1 (unknown origin)
# [2] = molecular target: T2, Serine/threonine-protein kinase B-raf (Homo sapiens, UniProt P15056); assay: Inhibition of BRAF (unknown origin)
# [3] = molecular target: T1, Dual specificity mitogen-activated protein kinase kinase 1; assay: Inhibition of MEK1 (unknown origin) assessed as remaining activity at 0.1 uM relative to control
# [4] = molecular target: T2, Serine/threonine-protein kinase B-raf; assay: Inhibition of BRAF (unknown origin) assessed as remaining activity at 0.1 uM relative to control
# [5] = Antiproliferative activity against rat H9c2 cells incubated for 72 hrs by CCK8 assay; type: toxicity, cell-based
# [6] = molecular target: Dual specificity mitogen-activated protein kinase kinase; MEK1/2 (Homo sapiens) (UniProt P36507+Q02750); assay: Inhibition of MEK phosphorylation in human MIA PaCa-2 cells at lower concentration incubated for at least 48 hrs by Western blot analysis; type: cell-based
# Dual specificity mitogen-activated protein kinase kinase; MEK1/2 (Homo sapiens), sequence (P36507 whole entry, looked up): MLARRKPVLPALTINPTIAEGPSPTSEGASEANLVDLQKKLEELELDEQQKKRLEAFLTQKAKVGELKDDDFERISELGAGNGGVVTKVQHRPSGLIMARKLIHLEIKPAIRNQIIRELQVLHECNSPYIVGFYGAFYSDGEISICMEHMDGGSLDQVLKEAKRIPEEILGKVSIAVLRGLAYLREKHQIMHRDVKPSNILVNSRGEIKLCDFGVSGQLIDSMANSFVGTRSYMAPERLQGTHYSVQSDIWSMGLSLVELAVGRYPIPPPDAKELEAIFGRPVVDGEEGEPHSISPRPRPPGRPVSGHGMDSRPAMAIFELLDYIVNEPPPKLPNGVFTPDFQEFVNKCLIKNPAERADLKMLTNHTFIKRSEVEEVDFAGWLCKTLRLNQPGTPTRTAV
# Dual specificity mitogen-activated protein kinase kinase; MEK1/2 (Homo sapiens), sequence (Q02750 whole entry, looked up): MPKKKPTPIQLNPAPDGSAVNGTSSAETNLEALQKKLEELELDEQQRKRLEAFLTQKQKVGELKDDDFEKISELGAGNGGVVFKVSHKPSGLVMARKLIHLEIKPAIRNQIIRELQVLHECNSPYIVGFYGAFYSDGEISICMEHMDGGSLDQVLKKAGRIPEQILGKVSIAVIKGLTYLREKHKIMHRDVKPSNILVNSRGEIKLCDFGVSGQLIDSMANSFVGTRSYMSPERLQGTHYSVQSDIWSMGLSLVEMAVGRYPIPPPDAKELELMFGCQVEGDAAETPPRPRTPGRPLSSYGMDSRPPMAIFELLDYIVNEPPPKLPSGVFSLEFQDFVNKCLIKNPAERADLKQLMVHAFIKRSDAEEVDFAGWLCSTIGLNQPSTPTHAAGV
# MIA PaCa-2 [7] = assay: Inhibition of MEK1/2/BRAF complex in human MIA PaCa-2 cells at 100 nM incubated for 4 hrs by co-immunoprecipitation method; type: cell-based
# [8] = molecular target: T1, Dual specificity mitogen-activated protein kinase kinase 1; assay: Inhibition of MEK1 (unknown origin) at 1 uM by kinase profiling analysis
# [9] = molecular target: T2, Serine/threonine-protein kinase B-raf; assay: Inhibition of BRAF (unknown origin) at 1 uM by kinase profiling analysis
# Homo sapiens = organism: Homo sapiens; assay: Inhibition of BRAF […] mutant (unknown origin) at 1 uM by kinase profiling analysis
# MIA PaCa-2 [10] = assay: Inhibition of colony formation in human MIA PaCa-2 cells incubated for 10 days by crystal violet staining based analysis; type: functional, cell-based; conditions: dose 0.01-1 µM, time 10.0 day
# MIA PaCa-2 [11] = assay: Induction of apoptosis in human MIA PaCa-2 cells assessed as increase in cleaved caspase-3 level upto 1 uM incubated for 24 hrs by Western blot analysis; type: functional, cell-based
# HUVEC = assay: Inhibition of cell migration in human HUVEC cells at 0.01 to 1 uM incubated for 24 hrs by wound healing assay; type: functional, cell-based; conditions: dose 0.01-1 µM
# MIA PaCa-2 [12] = assay: Induction of apoptosis in human MIA PaCa-2 cells assessed as late apoptotic cells at 0.25 uM incubated for 24 hrs by Annexin V-FITC/PI staining based flow cytometry (reference value: 6.90 %); type: functional
# MIA PaCa-2 [13] = assay: Induction of apoptosis in human MIA PaCa-2 cells assessed as late apoptotic cells at 1 uM incubated for 24 hrs by Annexin V-FITC/PI staining based flow cytometry (reference value: 6.90 %); type: functional
# MIA PaCa-2 [14] = assay: Induction of apoptosis in human MIA PaCa-2 cells assessed as late apoptotic cells at 5 uM incubated for 24 hrs by Annexin V-FITC/PI staining based flow cytometry (reference value: 6.90 %); type: functional
# MIA PaCa-2 [15] = assay: Induction of cell cycle arrest at G0/G1 phase in human MIA PaCa-2 cells at 0.01 to 0.25 uM incubated for 24 hrs by PI/RNase staining based flow cytometry (reference value: 47.37 %); type: functional; conditions: dose 0.01-0.25 µM
# HCT-116 = assay: Induction of cell cycle arrest at G0/G1 phase in human HCT-116 cells at 0.1 to 2.5 uM incubated for 24 hrs by PI/RNase staining based flow cytometry (reference value: 61.35 %); type: functional; conditions: dose 0.1-2.5 µM
# [16] = Toxicity in BALB/c mouse xenografted with […] harboring KRAS G12D mutant assessed as body weight change at 5 to 30 mg/kg, iv administered 5 times a week for 12 days; type: organism-based, C-26; conditions: in vivo, 288 h, dose 5-30 mg/kg, time 12 day
# [17] = Toxicity in NU/NU mouse xenografted with human HCT-116 cells harboring KRAS G13D mutant assessed as body weight change at 15 to 30 mg/kg, iv administered 5 times a week for 16 days; type: organism-based; conditions: in vivo, 384 h, dose 15-30 mg/kg, time 16 day
# [18] = system: Mitogen-activated protein kinase 1/3 (ERK1/2) (Homo sapiens); assay: Inhibition of ERK phosphorylation in human MIA PaCa-2 cells at lower concentration incubated for at least 48 hrs by Western blot analysis
# T1 sequence (Q02750 whole entry): as the sequence (Q02750 whole entry, looked up) above
# T2 sequence (P15056 whole entry): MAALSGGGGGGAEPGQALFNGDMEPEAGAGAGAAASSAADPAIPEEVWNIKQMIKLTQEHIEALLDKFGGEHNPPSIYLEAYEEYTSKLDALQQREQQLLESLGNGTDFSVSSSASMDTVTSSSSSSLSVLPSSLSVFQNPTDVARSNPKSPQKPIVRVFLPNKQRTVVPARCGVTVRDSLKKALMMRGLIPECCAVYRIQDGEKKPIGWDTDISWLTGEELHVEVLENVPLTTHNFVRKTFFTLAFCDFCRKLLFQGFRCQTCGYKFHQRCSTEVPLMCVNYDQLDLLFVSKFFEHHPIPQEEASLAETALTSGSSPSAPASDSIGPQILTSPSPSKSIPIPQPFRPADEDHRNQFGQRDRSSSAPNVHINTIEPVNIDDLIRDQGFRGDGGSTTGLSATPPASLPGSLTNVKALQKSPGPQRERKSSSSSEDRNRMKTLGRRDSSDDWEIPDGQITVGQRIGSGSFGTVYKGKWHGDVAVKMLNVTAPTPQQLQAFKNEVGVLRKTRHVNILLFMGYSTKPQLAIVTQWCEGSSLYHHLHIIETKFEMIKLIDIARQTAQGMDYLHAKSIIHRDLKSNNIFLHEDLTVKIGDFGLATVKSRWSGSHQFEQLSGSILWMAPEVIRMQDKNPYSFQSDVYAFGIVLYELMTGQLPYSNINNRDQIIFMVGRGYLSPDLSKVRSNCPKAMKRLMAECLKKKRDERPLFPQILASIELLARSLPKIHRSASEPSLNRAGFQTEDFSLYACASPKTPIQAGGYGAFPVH
smiles,measurement,setting,value
CCNS(=O)(=O)Nc1cccc(Cn2cnc3c(F)c(Nc4ccc(C5CC5)cc4F)c(C(=O)NOCCO)cc32)c1F,IC50,[1],28 nM
same,IC50,[2],3 nM
same,Activity,[3],25%
same,Activity,[4],-3%
same,IC50 at 72 h,[5],> 50000 nM
same,inhibition,[6],Active
same,inhibition,MIA PaCa-2 [7],Active
same,inhibition,[8],Active
same,inhibition,[9],Active
same,inhibition,Homo sapiens,Active
same,inhibition,MIA PaCa-2 [10],Dose-Dependent Effect
same,Activity,MIA PaCa-2 [11],Active
same,inhibition,HUVEC,Active
same,Activity,MIA PaCa-2 [12],7.36%
same,Activity,MIA PaCa-2 [13],8.21%
same,Activity,MIA PaCa-2 [14],9.09%
same,Activity,MIA PaCa-2 [15],87.94%
same,Activity,HCT-116,79.63%
same,Activity,[16],Non-Toxic
same,Activity,[17],Non-Toxic
same,inhibition,[18],Active

# From ChEMBL document CHEMBL5584338, “Design, Synthesis, and Biological Evaluation of 5-Amino-4-fluoro-1H-benzo[d]imidazole-6-carboxamide Derivatives as Novel and Potential MEK/RAF Complex Inhibitors Based on the "Clamp" Strategy” (J Med Chem, 2024)
